From patent US20100022637A1, “IDENTIFICATION OF ANTI-CANCER COMPOUNDS AND COMPOUNDS FOR TREATING HUNTINGTON'S DISEASE AND METHODS OF TREATMENT THEREOF” (THE TRUSTEES OF COLUMBIA UNIVERSITY IN THE CITY OF NEW YORK, priority 2005, published 2010) come the findings set out here.

Converted amounts (≈) assume the structure as drawn. Like-named read-outs stand apart in the source and are kept apart here.

One data set is described as follows: in vitro. The settings on record: rat. As to the method:
(§1) Embryonic rat striatal neurons were conditionally immortalized by stably transfecting a temperature-sensitive SV40 large T-antigen (T-ag) to generate the ST14A cell line. ST14A cells proliferate at the permissive temperature (33° C.), but stop dividing at 39° C., as a result of T-ag degradation. […] As htt protein context modulates polyQ toxicity, testing these different length htt proteins could provide insight into the basis for context dependence.
(§2) ST14A Assay System: Calcein acetoxylmethyl ester (AM) (Molecular Probes, Eugene, Oreg.) is a non-fluorescent, membrane-permeable compound that is cleaved by intracellular esterases, which subsequently forms the anionic, fluorescent compound, calcein, that cannot permeate the cell membrane. […] A fluorescence viability assay, that is based on conversion of a non-fluorescent substrate (calcein AM) to a fluorescent product by nonspecific esterases in live cells, was employed to monitor cell death in wild type (wt) ST14A-Htt and mut ST14A-Htt cell lines. Cell death is indicated by a decrease in fluorescence. […] 3 μl of each compound was transferred from daughter plates to triplicate assay plates for a final assay concentration of 4 μg/ml in 0.1% DMSO (10 μM for NINDS compounds). Cells were incubated at 33° C. for 3 h to enhance attachment and then shifted to 39° C. (with 5% CO2). After 3 days (d), cells were washed 10 times with phosphate buffered saline (PBS) leaving 20 μl residual PBS per well, and 20 μl of 2 μg/ml calcein AM (Molecular probes) in PBS was added per well. […] The fluorescence intensity in each well was normalized to the median of each plate. The median normalized fluorescence of each triplicate assay wells was determined. A well with more than 50% increase in intensity above the median signal intensity was considered a “hit.”
(§3) Assay Development: An assay was developed for detecting mutant htt-induced cell death in ST14A cells in a 384-well plate format. A calcein AM-based method was used to detect cell viability, and optimized the cell number and time course for this method. […] A cell number titration was performed to determine the cell density at which calcein fluorescence was not saturated and the coefficient of variation (CV) was low (FIG. 14A-B). A low CV is critical for a high-throughput assay as it decreases noise and enhances sensitivity. […] Next, the kinetics of the fluorescence signal were determined.
(§4) Next, the serum concentrations that induce cell death in these cells were determined. Cells were seeded in decreasing serum (IFS) concentrations (5 to 0%), and cell viability was assayed after 3 d using the calcein AM assay (FIG. 14E).
(§5) A Z′ value of greater than 0 is required for a usable assay, with a maximum value of 1.0 for an ideal assay. For the assay, calcein fluorescence was used on the day of seeding to represent 100% rescue. The difference in calcein fluorescence signal on the day of seeding and after different number of days under serum deprivation was determined and used to calculate the Z′ factor. […] About 47,000 compounds were assayed in a 384-well plate format in triplicate to enhance the reliability of the primary screen.

In another data set the test system is N548 mutant cells. The data set is described as follows: cells. To be noted: for EC50 / maximal fold induction: Rattus norvegicus; for Activity: nonselective hits, scale not defined; for selectivity profile of cell death rescue in panel of htt expressing cell lines: N63, N548, FL htt cell lines, in words; for maximal fold induction: read-out: N548 Mut: Max, maximum rescue expressed as fold over DMSO treated N548 mutant cells. The protocol: as §1, §2, §3, §4, §5

Data set [1] has as its system PC12 expressing Q103 exon 1 htt. The data set is described as follows: PC12 HD model, Alamar Blue viability. In kind it is cell-based. The settings on record: for EC50: Rattus norvegicus, PC-12, unit inferred; for PC12 rescue: percent increase in viability in compound treated cells above DMSO treated: — = no activity in the assay (footnote n.a.). The protocol: For enhanced stability the repeat portion consists of alternating CAG/CAA repeats. […] Mutant (mut) htt was induced by the ecdysone receptor agonist, tebufenozide.
For the PC12 assay, 7500 cells/well were plated in 384-well plates in 57 μl of PC12 medium with tebufenozide (1 μM). Compounds (3 μl) from daughter plates were added to the cells and incubated at 37° C. After 48 h, 20 μl of 40% Alamar Blue (Biosource, CA) in PC12 media was added per well and cells incubated for 12 h at 37° C. […] Fluorescence intensity was determined using a Packard Fusion plate reader with an excitation filter centered on 535 nm and an emission filter centered on 590 nm. Average percentage inhibition at each concentration was calculated.

Data set [2] deals with ASH neurons in C. elegans HD model (pqe-1; Htn-Q150). The data set is described as follows: Neuronal survival assay, worm HD model. It counts as in vivo. To be noted: 2 d after treatment, revertin-2 0.8 mg/ml, revertin-1a 1 mg/ml, p<0.02. The protocol: One hundred synchronized L1 worms (pqe-1; Htn-Q150) (Faber P., et al, Proc Natl Acad Sci 99: 17131-6; Wood W., Cold Spring Harbor Laboratory, NY) were added to 5 wells (20 worms/well). Each well contained 50 μl food suspension (6.6 O.D.) pre-mixed with compound or DMSO in a 96-well plate. Worms were incubated for 2 d at 15° C., washed in S-media, immobilized with 5 mM sodium azide on a microscopic glass slide and GFP fluorescence was examined using an Axoplan2 fluorescence microscope (ex 485/em 535 nm). Live (GFP positive) Anterior Sensory Horn (ASH) neurons were counted in at least 50 worms (100 neurons). Data were subjected to a two-tailed Student t-test.
Worm HD Model. A C. elegans model of HD was optimized for testing compounds. In this model, larval ASH neurons that express mutant htt in a poly Q enhancer-1 mutant background, die over 2-3 days after hatching (Faber P, et al, Proc Natl Acad Sci USA 2002, 99: 17131-6). Neuronal death was monitored by loss of GFP expression in ASH neurons. Since the effective concentration of compounds in worms can vary widely from those in cell culture, concentrations to test in worms were based on an assay (FIG. 19). The effective concentrations in worms for all compounds were determined and tested for rescue of neuronal cell death. […] Thus, the ST14A cell culture model can be used to identify compounds that are active in in vivo models of HD. […] Compounds in this series were active in both the worm and PC12 HD models (FIG. 18B-C). The revertin-1 series has certain features making it an attractive candidate for lead development including different analogues that are active, a low molecular weight (˜400) making it likely that it can cross the blood brain barrier; furthermore, it is synthetically tractable.

For the next data set, the system named is parental ST14A cells. The data set is described as follows: Cell death rescue in parental cells (selectivity counter screen). In kind it is cell-based, rat. The settings on record: in words. As to the method:
Cell death is indicated by a decrease in fluorescence. […] (with 5% CO2).
Identification of selective inhibitors of mutant-htt toxicity: As a first step towards probing mechanisms of action of these compounds, it was tested whether compounds selectively targeted pathways that are perturbed by mutant htt or if they suppressed a general death mechanism. Caspase activation was tested to see if it contributed to cell death in this model, since caspase-dependent pathways have been broadly implicated in cell death and in HD (Thornberry, N. and Y. Lazebnik, Science 1998, 281:1312-6; Sanchez Mejia, R and R. Friedlander Neuroscientist 2001, 7: 480-9; Hickey M. and M. Chesselet, Prog Neuropsychopharmacol Biol Psych 2003, 27: 255-65). Caspase activation was monitored via measuring the cleavage of specific fluorogenic caspase substrates. […] The decreased caspase activation in WT N548 cells was consistent with relative protection of these cells from cell death. […] Thus, the ability of a compound to rescue cell death in ST14A cells could be used as a selectivity filter to differentiate compounds that were selective for pathways selective for mutant htt induced cell death. The selectivity of rescue by a compound was determined by assessing rescue of cell death in parental ST14A cells. […]

[3] abbreviates: read-out: EC50 based on activity in N548 mutant cells.

In “in vitro” (ST14A striatal cells expressing N548 mutant human htt), `O=C(O)c1ccccc1Nc1cccc(C(F)(F)F)c1` [Flufenamic Acid, reference compound] gave a CC50 at 3 days of 40 µM. The same compound came in with an EC50 with N548 mutant cells (ST14A, 72 h) of 5 µM. Also, in the data set with N548 mutant cells, the Activity came out at 1.5.
`CC[n+]1c(-c2ccccc2)c2cc(N)ccc2c2ccc(N)cc21` [Homidium Bromide, reference compound] had a CC50 in the data set “in vitro” of 15 µM. This compound also showed an EC50 with N548 mutant cells (ST14A, 72 h) of 10 µM. The same compound had an Activity in the data set on N548 mutant cells of 1.5.
For the compound `CCCc1cc(OC(=O)c2ccccc2F)n(-c2cccc(F)c2)n1` [revertin-1a], the EC50 in data set [1] was 50 µg/mL (≈ 146 µM); in the data set on N548 mutant cells (setting [3]), 4 µg/mL. The “PC12 rescue: percent increase in viability in compound treated cells above DMSO treated” value (“PC12 rescue: percent increase” below) in data set [1] was 21%. Also, the “selectivity profile of cell death rescue in panel of htt expressing cell lines” value (“selectivity profile of cell death rescue” for short) in the data set on N548 mutant cells is reported as “selectively rescued cell death in all mutant htt-expressing cell lines”. The maximal fold induction in the data set with N548 mutant cells (72 h) worked out at 2.5. The “ASH neuronal cell survival” value in data set [2] is recorded as “enhance ASH neuronal cell survival”.
As to `CCCCCCCCCC(=O)Oc1cc(-c2ccccc2)nn1-c1cccc(F)c1` [revertin-1c], the EC50 was determined as 40 µg/mL (≈ 97.9 µM) in data set [1] and 4 µg/mL with N548 mutant cells (setting [3]). For the same compound, in data set [1], the “PC12 rescue: percent increase” value came to 23%. For the same compound, the “selectivity profile of cell death rescue” value is reported as “selectively rescued cell death in all mutant htt-expressing cell lines” with N548 mutant cells and “selectively rescues cell death in three mutant htt expressing cell lines” with N548 mutant cells (listed as Rev-1c). In the data set with N548 mutant cells (72 h), the maximal fold induction stood at 2.5. Moreover, in the data set with parental ST14A cells, the “rescue of cell death in parental ST14A cells” value is listed as “not in parental ST14A cells”.
On to `COc1c2c(cc3c1C(CC(=O)/C=C/c1ccco1)[N+](C)(C)CC3)OCO2` (centres unmarked) [revertin-2], for which the values for the EC50 (in data set [1]; with N548 mutant cells (setting [3])) were 13 µg/mL and 3 µg/mL, respectively. In addition, the “PC12 rescue: percent increase” value in data set [1] was determined as 34%. In addition, the “selectivity profile of cell death rescue” value in the data set on N548 mutant cells is listed as “protective in all three mutant htt versions”. Also, the maximal fold induction in the data set on N548 mutant cells (72 h) was determined as 4. Further, the “ASH neuronal cell survival” value in data set [2] is on record as “enhance ASH neuronal cell survival”; in data set [2] (listed as rev-2), “rescued ASH neuronal cell death”.
